Data as given in patent US20260315483A1, “HETEROCYCLIC COMPOUNDS AS TRIGGERING RECEPTOR EXPRESSED ON MYELOID CELLS 2 AGONISTS AND METHODS OF USE” (VIGIL NEUROSCIENCE, INC., priority 2023, published 2026).

Target: T1, human TREM2 (Homo sapiens, UniProt Q9NZC2)
T1 construct: expressed in transfected cells; host or cells: HEK293T-hTREM2 cells (HEK cell line expressing human TREM2 and DAP12)
Test: In vitro measurement of TREM2 activity using cellular phosphorylation of spleen tyrosine kinase (Syk), AlphaLisa, HEK293T-hTREM2 cells
Format: cell-based
Settings: HEK293T cells expressing human TREM2 and DAP12, 45 min at room temperature, Table D
Protocol: In Vitro Measurement of Triggering Receptor Expressed on Myeloid Cells 2 Activity Using Cellular Phosphorylation of Spleen Tyrosine Kinase (“Syk”) Assays
Measurement of TREM2 agonist potency was done using a HEK cell line expressing human TREM2 and DAP12 (HEK293T-hTREM2 cells). Binding of small molecules to, and activation of, TREM2 increases the phosphorylation of Syk. The resultant levels of Syk phosphorylation are measured using a commercial AlphaLisa reagent kit. To perform the assay, HEK-hTREM2 cells were plated at 14,000 cells per well in a 384 well plate, in 25 μL of complete growth media and incubated at 37° C., 5% CO2 for 20-24 hours.
Prior to the assay, test compounds were diluted in the 384 well plates in assay buffer and allowed to equilibrate for 30 minutes. Growth media was removed from cell plates by inversion on blotting paper, and 25 μL of test articles in assay buffer was added to cells. Cells were incubated for 45 minutes at room temperature. After 45 minutes, assay buffer was removed and 10 μL of lysis buffer was added. Plates were shaken for 20 minutes at 350 RPM at room temperature. After complete lysis, AlphaLisa reagents were added to the lysate, and fluourescence intensity was measured using a Perkin Elmer Envision plate reader. Intensities were used to generate a standard curve, and % activation was calculated. Curve fitting was performed using Prism v9 software, log(agonist) vs response—variable slope (four parameters), and EC50s were calculated from the curve fit.
The results presented in Tables D and D-2 have been generated with the in vitro assay described above. This assay may be used to test any of the compounds described herein to assess and characterize a compound's ability to act as an agonist of TREM2.

T1 sequence (Q9NZC2 19-230): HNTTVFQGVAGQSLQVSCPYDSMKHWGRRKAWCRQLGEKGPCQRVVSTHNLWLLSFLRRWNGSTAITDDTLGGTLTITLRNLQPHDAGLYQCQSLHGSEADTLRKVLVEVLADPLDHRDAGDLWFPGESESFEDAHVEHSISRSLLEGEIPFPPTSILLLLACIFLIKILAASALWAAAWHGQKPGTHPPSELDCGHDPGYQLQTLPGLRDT
T1 sequence (O43914 22-113 partner): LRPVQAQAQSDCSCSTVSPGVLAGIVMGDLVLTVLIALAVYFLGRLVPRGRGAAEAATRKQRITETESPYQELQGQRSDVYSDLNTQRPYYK

EC50 [nM]	Structure (SMILES)
500 to 3000	CN(C)c1nc2nc([C@H]3CCO[C@@H](c4cnn(C5CC5)c4)C3)nc(C34CC(C(F)(F)F)(C3)C4)c2[nH]1 [compound 129, 2-[(2R,4S)-2-(1-cyclopropylpyrazol-4-yl)tetrahydropyran-4-yl]-N,N-dimethyl-6-[3-(trifluoromethyl)-1-bicyclo[1.1.1]pentanyl]-7H-purin-8-amine]
≤ 50	Cc1ccc(-c2nc(N3C[C@@H](C)O[C@@H](c4cnn(C5CC5)c4)C3)nc3nc(N(C)C)sc23)c(F)c1 [compound 110, 5-[(2S,6R)-2-(1-cyclopropylpyrazol-4-yl)-6-methyl-morpholin-4-yl]-7-(2-fluoro-4-methyl-phenyl)-N,N-dimethyl-thiazolo[4,5-d]pyrimidin-2-amine]
